Test results reported in PMC9688344, “[^225Ac]Ac-SibuDAB for Targeted Alpha Therapy of Prostate Cancer: Preclinical Evaluation and Comparison with [^225Ac]Ac-PSMA-617” (Cancers, 2022).

System: immunocompetent FVB mice
Assay: Tolerability study in immunocompetent mice
Assay type: in vivo
Source text: Five- to six-week-old immunocompetent, female FVB mice were purchased from Charles River Laboratories (Sulzfeld, Germany). After an acclimatization period of at least 7 days, the mice (n = 5 per group) were intravenously injected with 30 kBq [^225Ac]Ac-SibuDAB or 30 kBq [^225Ac]Ac-PSMA-617 and additional mice (n = 7 per group) remained untreated as controls. Mice were monitored by measuring their body mass and potential signs of pain or unease three times a week (Supplementary Material: Section S7). The mice were euthanized on Day 10, Day 28 or on Day 56, respectively, and variable parameters were assessed from blood and tissue samples.
Hematological analysis was performed using blood samples taken by cardiac puncture immediately after euthanasia. Blood and bone marrow smears were prepared and stained using the Pappenheim protocol. The assessment was carried out by a board-certified veterinary anatomic pathologist (AnaPath Services GmbH, Liestal, Switzerland). Blood plasma parameters were determined in plasma after centrifugation of blood samples obtained shortly before euthanasia (Supplementary Material: Section S7).
Tissue sections of formalin-fixed paraffin-embedded (FFPE) spleen, salivary glands and kidneys were prepared and stained with hematoxylin and eosin (H&E) by AnaPath Services GmbH (Liestal, Switzerland). The tissues were analyzed by a board certified veterinary pathologist using a pre-defined scoring system (Supplementary Material: Section S7). […]
The percentage of radioligand bound to mouse or human plasma (A bound) was plotted against the molar ratios of MSA/HSA to radioligand and fitted with a nonlinear regression curve (specific binding with Hill slope, Bmax set to 100%) using GraphPad Prism software (version 8) to obtain the half maximum binding (B 50).
Results: The results are reported in the main article.
Purpose: A tolerability study with normal, immunocompetent FVB mice was con-ducted in order to assess potential side effects to the bone marrow, spleen, salivary glands and kidneys after the application of high activities of the 225Ac-labeled PSMA radioligands.
Methods: Monitoring Body Mass and Signs of Unease: Mice were monitored by meas-uring their body mass (BM) three times a week. The body masses were expressed as the relative body mass, defined as [BMx/BM0], where BMx is the body mass in grams on a given Day x and BM0 is the body mass in grams on Day 0. Endpoint criteria, defined as (i) >15% loss in body mass, (ii) signs of unease and pain or a combination thereof based on a scoring system, were not reached in this stu dy.
Hematology: Blood cell counts were determined in blood samples taken by cardiac puncture immediately after euthanasia and collected in EDTA tubes (Microvette® 100 K3 EDTA, Sarstedt, Germany). Leukocyte, lymphocyte, erythrocyte and thrombocyte counts as well as hemoglobin and hematocrit values were determined using a hematology ana-lyzer (VetScan HM5, Abaxis, United States). Blood smears were prepared on glass slides with cardiac blood. The bone marrow was collected from the femur, diluted in FCS/H2O (2:1 v/v) and smeared onto microscopy slides using a paintbrush. The slides were stained with a May Grünwald solution and subsequently with diluted Giemsa solution using the Pappenheim method and covered with coverslips using mounting medium (Pertex).
The assessment of potential morphological ch anges of the blood cells and counting of the subgroups of leukocytes was performed by a board-certified veterinary pathologist (Ana-Path Services GmbH, Liestal, Switzerland).
Histopathological Analysis: Spleen, salivary glands and kidneys were formalin-fixed and paraffin-embedded. Tissue sections were stained with hematoxylin & eosin (H&E) […]
Blood Plasma Parameters: Blood plasma parameters were determined in plasma ob-tained from centrifuged retrobulbar blood samples collected in lithium-heparin tubes (Mi-crovette® 200 LH, SARSTEDT). The concentrations of blood urea nitrogen (BUN), alkaline […]

Structure (SMILES): O=C([O-])CN1CCN(CC(=O)[O-])CCN(CC(=O)NCC2CCC(C(=O)NC(Cc3ccc4ccccc4c3)C(=O)NCCCCC(NC(=O)NC(CCC(=O)O)C(=O)O)C(=O)O)CC2)CCN(CC(=O)[O-])CC1.[225Ac+3] (stereo not shown) [[^225Ac]Ac-PSMA-617]
- Tolerability (body mass) (30 kBq per mouse, until Day 56): well tolerated
- Kidneys: Hyperplasia/hypertrophy, tubular, incidence (Day 10, 30 kBq): 2
- Kidneys: Hyperplasia/hypertrophy, tubular, score average (Day 10, 30 kBq): 1.0
- Kidneys: Hypertrophy/hyperplasia, tubular with ectasia, incidence (Day 10, 30 kBq): 0
- Kidneys: Hypertrophy/hyperplasia, tubular with ectasia, score average (Day 10, 30 kBq): 0.0
- Kidneys: Inflammatory cells, interstitium, incidence (Day 10, 30 kBq): 0
- Kidneys: Inflammatory cells, interstitium, score average (Day 10, 30 kBq): 0.0
- Kidneys: Inflammatory cells, pelvis, incidence (Day 10, 30 kBq): 0
- Kidneys: Inflammatory cells, pelvis, score average (Day 10, 30 kBq): 0.0
- Kidneys: Mineralization, papilla, incidence (Day 10, 30 kBq): 0
- Kidneys: Mineralization, papilla, score average (Day 10, 30 kBq): 0.0
- Kidneys: Tubular basophilia, incidence (Day 10, 30 kBq): 0
- Kidneys: Tubular basophilia, score average (Day 10, 30 kBq): 0.0
- Salivary glands: Ductal hyperplasia with inflammatory cells, incidence (Day 10, 30 kBq): 0
- Salivary glands: Ductal hyperplasia with inflammatory cells, score average (Day 10, 30 kBq): 0.0
- Salivary glands: Hypertrophy acinar, sublingual, incidence (Day 10, 30 kBq): 0
- Salivary glands: Hypertrophy acinar, sublingual, score average (Day 10, 30 kBq): 0.0
- Salivary glands: Mononuclear cell foci, incidence (Day 10, 30 kBq): 1
- Salivary glands: Mononuclear cell foci, score average (Day 10, 30 kBq): 1.0
- Salivary glands: Necrosis, multifocal, serous acinar cells, incidence (Day 10, 30 kBq): two out of five
- Salivary glands: Necrosis, multifocal, serous acinar cells, score average (Day 10, 30 kBq): 1.0
- Salivary glands: Vacuolation, incidence (Day 10, 30 kBq): 0
- Salivary glands: Vacuolation, score average (Day 10, 30 kBq): 0.0
- Spleen: Extramedullary hematopoiesis, incidence (Day 10, 30 kBq): 5
- Spleen: Extramedullary hematopoiesis, score average (Day 10, 30 kBq): 1.0
- Spleen: Hyperplasia, lymphoid, incidence (Day 10, 30 kBq): 1
- Spleen: Hyperplasia, lymphoid, score average (Day 10, 30 kBq): 1.0
- Spleen: Pigment, incidence (Day 10, 30 kBq): 5
- Spleen: Pigment, score average (Day 10, 30 kBq): 1.0
- mice with relative increase of neutrophilic blasts (metamyelocytes) in peripheral blood (Day 10, 30 kBq): two out of five
- myelopoiesis in bone marrow smears (group value) (Day 10, 30 kBq): 62%
- Salivary glands: Necrosis, multifocal, serous acinar cells, incidence (Day 10, 30 kBq, listed as [225Ac]Ac-PSMA-617): 2
- Blood smear, Notes (Day 10, mouse M1): More neutrophilic blasts (Metamyelocyte)
- Bone marrow % E (Day 10, mouse M1): 50%
- Bone marrow % M (Day 10, mouse M1): 50%
- Blood smear, Notes (Day 10, mouse M2): More neutrophilic blasts (Metamyelocyte)
- Bone marrow % E (Day 10, mouse M2): 60%
- Bone marrow % M (Day 10, mouse M2): 40%
- Bone marrow % E (Day 10, mouse M3): 20%
- Bone marrow % M (Day 10, mouse M3): 80%
- Bone marrow smear, Notes (Day 10, mouse M3): More blasts, neutrophilic row
- Bone marrow % E (Day 10, mouse M4): 30%
- Bone marrow % M (Day 10, mouse M4): 70%
- Bone marrow smear, Notes (Day 10, mouse M4): More blasts, neutrophilic row
- Bone marrow % E (Day 10, mouse M5): 30%
- Bone marrow % M (Day 10, mouse M5): 70%
- Bone marrow smear, Notes (Day 10, mouse M5): More blasts, neutrophilic row
- Albumin concentration in blood plasma (Day 28, 30 kBq): 23 g/L
- Blood urea nitrogen (Day 28, 30 kBq): 8.7 ± 1.1 mmol/L
- Erythrocyte counts (Day 28, 30 kBq): 8.7 ± 0.3 × 10^12/L
- Hematocrit (Day 28, 30 kBq): 43 ± 3%
- Hemoglobin (Day 28, 30 kBq): 11.3 ± 0.5 g/dL
- Kidneys: Hyperplasia/hypertrophy, tubular, incidence (Day 28, 30 kBq): 1
- Kidneys: Hyperplasia/hypertrophy, tubular, score average (Day 28, 30 kBq): 1.0
- Kidneys: Hypertrophy/hyperplasia, tubular with ectasia, incidence (Day 28, 30 kBq): 0
- Kidneys: Hypertrophy/hyperplasia, tubular with ectasia, score average (Day 28, 30 kBq): 0.0
- Kidneys: Inflammatory cells, interstitium, incidence (Day 28, 30 kBq): 0
- Kidneys: Inflammatory cells, interstitium, score average (Day 28, 30 kBq): 0.0
- Kidneys: Inflammatory cells, pelvis, incidence (Day 28, 30 kBq): 0
- Kidneys: Inflammatory cells, pelvis, score average (Day 28, 30 kBq): 0.0
- Kidneys: Mineralization, papilla, incidence (Day 28, 30 kBq): 1
- Kidneys: Mineralization, papilla, score average (Day 28, 30 kBq): 1.0
- Kidneys: Tubular basophilia, incidence (Day 28, 30 kBq): 1
- Kidneys: Tubular basophilia, score average (Day 28, 30 kBq): 1.0
- Salivary glands: Ductal hyperplasia with inflammatory cells, incidence (Day 28, 30 kBq): 0
- Salivary glands: Ductal hyperplasia with inflammatory cells, score average (Day 28, 30 kBq): 0.0
- Salivary glands: Hypertrophy acinar, sublingual, incidence (Day 28, 30 kBq): 0
- Salivary glands: Hypertrophy acinar, sublingual, score average (Day 28, 30 kBq): 0.0
- Salivary glands: Mononuclear cell foci, incidence (Day 28, 30 kBq): 1
- Salivary glands: Mononuclear cell foci, score average (Day 28, 30 kBq): 1.0
- Salivary glands: Necrosis, multifocal, serous acinar cells, incidence (Day 28, 30 kBq): all five
- Salivary glands: Necrosis, multifocal, serous acinar cells, score average (Day 28, 30 kBq): 1.8
- Salivary glands: Vacuolation, incidence (Day 28, 30 kBq): 0
- Salivary glands: Vacuolation, score average (Day 28, 30 kBq): 0.0
- Spleen: Extramedullary hematopoiesis, incidence (Day 28, 30 kBq): 5
- Spleen: Extramedullary hematopoiesis, score average (Day 28, 30 kBq): 1.8
- Spleen: Hyperplasia, lymphoid, incidence (Day 28, 30 kBq): 5
- Spleen: Hyperplasia, lymphoid, score average (Day 28, 30 kBq): 1.0
- Spleen: Pigment, incidence (Day 28, 30 kBq): 5
- Spleen: Pigment, score average (Day 28, 30 kBq): 1.8
- Salivary glands: Necrosis, multifocal, serous acinar cells, incidence (Day 28, 30 kBq, listed as [225Ac]Ac-PSMA-617): 5
- Bone marrow % E (Day 28, mouse M1): 50%
- Bone marrow % M (Day 28, mouse M1): 50%
- Bone marrow % E (Day 28, mouse M2): 40%
- Bone marrow % M (Day 28, mouse M2): 60%
- Bone marrow % E (Day 28, mouse M3): 40%
- Bone marrow % M (Day 28, mouse M3): 60%
- Bone marrow % E (Day 28, mouse M4): 50%
- Bone marrow % M (Day 28, mouse M4): 50%
- Bone marrow % E (Day 28, mouse M5): 40%
- Bone marrow % M (Day 28, mouse M5): 60%
- Kidneys: Hyperplasia/hypertrophy, tubular, incidence (Day 56, 30 kBq): 1
- Kidneys: Hyperplasia/hypertrophy, tubular, score average (Day 56, 30 kBq): 1.0
- Kidneys: Hypertrophy/hyperplasia, tubular with ectasia, incidence (Day 56, 30 kBq): 0
- Kidneys: Hypertrophy/hyperplasia, tubular with ectasia, score average (Day 56, 30 kBq): 0.0
- Kidneys: Inflammatory cells, interstitium, incidence (Day 56, 30 kBq): 0
- Kidneys: Inflammatory cells, interstitium, score average (Day 56, 30 kBq): 0.0
- Kidneys: Inflammatory cells, pelvis, incidence (Day 56, 30 kBq): 0
- Kidneys: Inflammatory cells, pelvis, score average (Day 56, 30 kBq): 0.0
- Kidneys: Mineralization, papilla, incidence (Day 56, 30 kBq): 0
- Kidneys: Mineralization, papilla, score average (Day 56, 30 kBq): 0.0
- Kidneys: Tubular basophilia, incidence (Day 56, 30 kBq): 1
- Kidneys: Tubular basophilia, score average (Day 56, 30 kBq): 1.0
- Salivary glands: Ductal hyperplasia with inflammatory cells, incidence (Day 56, 30 kBq): 0
- Salivary glands: Ductal hyperplasia with inflammatory cells, score average (Day 56, 30 kBq): 0.0
- Salivary glands: Hypertrophy acinar, sublingual, incidence (Day 56, 30 kBq): 0
- Salivary glands: Hypertrophy acinar, sublingual, score average (Day 56, 30 kBq): 0.0
- Salivary glands: Mononuclear cell foci, incidence (Day 56, 30 kBq): 2
- Salivary glands: Mononuclear cell foci, score average (Day 56, 30 kBq): 1.0
- Salivary glands: Necrosis, multifocal, serous acinar cells, incidence (Day 56, 30 kBq): 0
- Salivary glands: Necrosis, multifocal, serous acinar cells, score average (Day 56, 30 kBq): 0.0
- Salivary glands: Vacuolation, incidence (Day 56, 30 kBq): 0
- Salivary glands: Vacuolation, score average (Day 56, 30 kBq): 0.0
- Spleen: Extramedullary hematopoiesis, incidence (Day 56, 30 kBq): 5
- Spleen: Extramedullary hematopoiesis, score average (Day 56, 30 kBq): 1.4
- Spleen: Hyperplasia, lymphoid, incidence (Day 56, 30 kBq): 0
- Spleen: Hyperplasia, lymphoid, score average (Day 56, 30 kBq): 0.0
- Spleen: Pigment, incidence (Day 56, 30 kBq): 5
- Spleen: Pigment, score average (Day 56, 30 kBq): 2.0
- Bone marrow % E (Day 56, mouse M1): 30%
- Bone marrow % M (Day 56, mouse M1): 70%
- Bone marrow % E (Day 56, mouse M2): 40%
- Bone marrow % M (Day 56, mouse M2): 60%
- Bone marrow % E (Day 56, mouse M3): 30%
- Bone marrow % M (Day 56, mouse M3): 70%
- Bone marrow % E (Day 56, mouse M4): 40%
- Bone marrow % M (Day 56, mouse M4): 60%
